Measured values as given in patent US9274101B2 (BIOLOG, Inc., priority 2001, dated 2016).

Experiments:
[1] = test system: DMSO-differentiated HL-60 cells; assay: Energy use by DMSO-differentiated HL-60 cells; type: cell-based, human; details: for activity at 30 µM / activity at 100 µM / activity at 330 µM / activity at 1000 µM / activity at 3300 µM / activity at 10000 µM / activity at 15000 µM / activity at 20000 µM: Homo sapiens, HL-60, 24 h, read-out: Energy Use by DMSO-Differentiated HL-60 Cells
Description: In this Example, methods for testing in vitro-differentiated cells for their ability to use multiple energy sources are described. Prior to differentiation, HL-60 cells were cultured as described in Example 27. DMSO-induced differentiation (Odani et al., Res. Commun. Mol. Pathol. Pharmacol. 108:381-391 [2000]; and Yamaguchi et al., Biol. Pharm. Bull. 20:943-947 [1997]) was accomplished by incubation of the cells in the presence of 1.25% DMSO for 3 days.
After washing, HL-60 cells were resuspended in DME-R. An aliquot of the cell suspension was counted by trypan blue exclusion and the cell density was adjusted to 6.67×10^5/mL. Fifty μL of DME-R were added to each well of the appropriate number of half area, 96-well plates, followed by 25 μL of the appropriate dilution of each test energy source. Stocks of 133 mM of each test chemical were prepared in tissue culture grade water, sterile filtered, and dilutions were prepared in a master plate so that, upon dilution into a half-area 96-well microtiter plate to a total well volume of 150 μL, the final concentrations would be 0.033 to 20 mM. Negative control wells received 25 μL of tissue culture grade water. The cells were plated at a volume of 75 μL/well, giving a final cell density of 5×10^4/well. For each plate containing energy sources and cells, a second, control plate containing only energy sources was prepared with the same total volume of liquid (148 μL/well). Plates were incubated at 5% CO2, 90-100% humidity, and 37° C. for 24 hours prior to addition of the MTS/MPMS calorimetric reagent (7.5 μL/well). The color formed in each well 24 hours after addition of the colorimetric reagent, was measured with a plate reader at 490 nm with a reference wavelength of 650 nm. OD values from the control plate were subtracted from the OD values obtained with cells prior to normalizing the data to % negative control (cells without added energy source).

[2] = test system: HL-60 cells; assay: Effect of 1 mM chloramphenicol on HL-60 energy utilization; type: cell-based, human; details: negative control without chloramphenicol
Description: In this Example, methods for testing antimicrobial-induced modulation in growth of a cell are described. The antimicrobial selected for this Example is chloramphenicol. However, this application is not intended to be limited to the use of chloramphenicol, translation inhibitors or even antibiotics. HL-60 cells were cultured as described in Example 27.
After washing, HL-60 cells were resuspended in DME-R. An aliquot of the cell suspension was counted by trypan blue exclusion and the cell density was adjusted to 6.67×10^5[…]. Fifty μL of DME-R containing 3 mM chloramphenicol were added to each well of the appropriate number of half area, 96-well plates, followed by 25 μL of the appropriate dilution of each test energy source. Stocks of 133 mM of each test chemical were prepared in tissue culture grade water, sterile filtered, and dilutions were prepared in a master plate so that, upon dilution in a total volume of 150 μL, the final concentrations would be 0.033 to 20 mM. Negative control wells received 25 μL of tissue culture grade water. The cells were plated at a volume of 75 μL/well, giving a final cell density of 5×10^4/well. For each plate containing energy sources and cells, a second, control plate containing only energy sources was prepared. Plates were incubated at 5% CO2, 90-100% humidity, and 37° C. for 24 hours prior to addition of the MTS/MPMS colorimetric reagent (7.5 μL/well). The color formed in each well 24 hours after addition of the colorimetric reagent, was measured with a plate reader at 490 nm with a reference wavelength of 650 nm. OD values from the control plate were subtracted from the OD values obtained with cells prior to normalizing the data to % negative control.
Data shown in Table 25 are expressed as percent negative control without chloramphenicol. […] Chloramphenicol clearly has a different effect on the cells than citrate shown in Example 33.

[3] = test system: E. coli MG1655; type: cell-based, Escherichia coli
[4] = energy source 0.03 mM with 1 mM chloramphenicol
[5] = energy source 0.10 mM with 1 mM chloramphenicol
[6] = energy source 0.33 mM with 1 mM chloramphenicol
[7] = energy source 1.00 mM with 1 mM chloramphenicol
[8] = energy source 3.3 mM with 1 mM chloramphenicol
[9] = energy source 10 mM with 1 mM chloramphenicol
[10] = energy source 15 mM with 1 mM chloramphenicol
[11] = energy source 20 mM with 1 mM chloramphenicol

Row | SMILES | Energy Use by DMSO-Differentiated HL-60 Cells ([1]; Conc. 0.03 mM) | Energy Use by DMSO-Differentiated HL-60 Cells ([1]; Conc. 0.10 mM) | Energy Use by DMSO-Differentiated HL-60 Cells ([1]; Conc. 0.33 mM) | Energy Use by DMSO-Differentiated HL-60 Cells ([1]; Conc. 1.00 mM) | Energy Use by DMSO-Differentiated HL-60 Cells ([1]; Conc. 3.3 mM) | Energy Use by DMSO-Differentiated HL-60 Cells ([1]; Conc. 10 mM) | Energy Use by DMSO-Differentiated HL-60 Cells ([1]; Conc. 15 mM) | Energy Use by DMSO-Differentiated HL-60 Cells ([1]; Conc. 20 mM) | activity at 30 µM ([1]; Conc. 0.03 mM) | activity at 100 µM ([1]; Conc. 0.10 mM) | activity at 330 µM ([1]; Conc. 0.33 mM) | activity at 1000 µM ([1]; Conc. 1.00 mM) | Effect of 1 mM chloramphenicol on HL-60 Energy Utilization [2, 4] | Effect of 1 mM chloramphenicol on HL-60 Energy Utilization [2, 5] | Effect of 1 mM chloramphenicol on HL-60 Energy Utilization [2, 6] | Effect of 1 mM chloramphenicol on HL-60 Energy Utilization [2, 7] | Effect of 1 mM chloramphenicol on HL-60 Energy Utilization [2, 8] | Effect of 1 mM chloramphenicol on HL-60 Energy Utilization [2, 9] | Effect of 1 mM chloramphenicol on HL-60 Energy Utilization [2, 10] | Effect of 1 mM chloramphenicol on HL-60 Energy Utilization [2, 11] | further results
1 | O=C1O[C@@H]([C@H](O)CO)[C@H](O)[C@H]1O [D-gal acid g-lactone] | 111.9 % of negative control | 122.9 % of negative control | 133.3 % of negative control | 157.1 % of negative control | 185.9 % of negative control | 166.9 % of negative control | 130.4 % of negative control | 99.2 % of negative control | – | – | – | – | – | – | – | – | – | – | – | – | –
2 | O=C[C@H](O)[C@@H](O)[C@@H](O)[C@H](O)C(=O)O [D-galacturonic acid] | – | – | – | – | – | – | – | – | 118% | 123% | 138% | 157% | 0.2 % of negative control | −2.7 % of negative control | −4.6 % of negative control | −4.6 % of negative control | 7.9 % of negative control | 8.4 % of negative control | 5.0 % of negative control | −12.8 % of negative control | activity at 3300 µM ([1]; Conc. 3.3 mM): 168%; activity at 10000 µM ([1]; Conc. 10 mM): 173%; activity at 15000 µM ([1]; Conc. 15 mM): 126%; activity at 20000 µM ([1]; Conc. 20 mM): 101%
3 | NC(=O)C[C@H](N)C(=O)O [L-asparagine] | – | – | – | – | – | – | – | – | 106% | 112% | 122% | 143% | 6.3 % of negative control | 17.4 % of negative control | 7.6 % of negative control | 3.1 % of negative control | 12.1 % of negative control | 22.9 % of negative control | 20.9 % of negative control | 30.2 % of negative control | activity at 3300 µM ([1]; Conc. 3.3 mM): 153%; activity at 10000 µM ([1]; Conc. 10 mM): 167%; activity at 15000 µM ([1]; Conc. 15 mM): 152%; activity at 20000 µM ([1]; Conc. 20 mM): 134%; suitability as nitrogen source (growth, purple color) [3]: positive
4 | O=C1O[C@H]([C@@H](O)CO)[C@@H](O)[C@@H]1O [L-gal acid g-lactone] | 113.9 % of negative control | 129.2 % of negative control | 137.5 % of negative control | 155.4 % of negative control | 178.2 % of negative control | 171.1 % of negative control | 131.1 % of negative control | 98.1 % of negative control | – | – | – | – | −2.0 % of negative control | −8.4 % of negative control | 4.3 % of negative control | −13.9 % of negative control | 3.7 % of negative control | 14.5 % of negative control | 18.0 % of negative control | 2.4 % of negative control | –
5 | O=C(O)[C@@H]1C[C@@H](O)CN1 [hydroxy L-proline] | 102.8 % of negative control | 110.5 % of negative control | 120.5 % of negative control | 121.9 % of negative control | 129.0 % of negative control | 126.9 % of negative control | 109.0 % of negative control | 92.0 % of negative control | – | – | – | – | 1.2 % of negative control | −5.0 % of negative control | 2.6 % of negative control | −1.2 % of negative control | 4.4 % of negative control | 1.7 % of negative control | 15.7 % of negative control | 0.6 % of negative control | –
6 | COC(=O)CCC(=O)O [mono methyl succinate] | – | – | – | – | – | – | – | – | 104% | 93.4% | 124% | 142% | 10.4 % of negative control | −2.1 % of negative control | 2.6 % of negative control | 1.8 % of negative control | 43.3 % of negative control | 78.1 % of negative control | 47.8 % of negative control | 16.2 % of negative control | activity at 3300 µM ([1]; Conc. 3.3 mM): 184%; activity at 10000 µM ([1]; Conc. 10 mM): 194%; activity at 15000 µM ([1]; Conc. 15 mM): 156%; activity at 20000 µM ([1]; Conc. 20 mM): 118%
